From patent US20110182982A1, “LIPOSOME TREATMENT OF VIRAL INFECTIONS” (University of Oxford, priority 2006, published 2011)

What was measured:
[1] = tested on: CHO cells; assay: Liposome uptake (Rh-PE) and intracellular calcein dequenching; type: cell-based, Chinese hamster
Procedure: The effects of different DNJ compounds on the cellular uptake and intracellular release, when encapsulated inside DCPP liposomes, was determined by diluting compounds in 80-mM calcein and incorporating Rh-PE in liposome membranes as previously described, with the final liposome composition being DOPE:CHEMS:PEG-PE:Rh-PE (DCPP-Rh, 6:4:0.3:0.1) Liposomes encapsulating calcein alone, 10-μM DNJ, 1-mM DNJ, 10-μM NB-DNJ, 1-mM NB-DNJ, 10-μM NN-DNJ, or 1-mM NN-DNJ, were incubated with CHO cells for 45 min before liposomes were removed and cells were washed twice in 1×PBS. Cells were then analyzed in a fluorometer to measure calcein dequenching (λex=490 and λem=520 nm) and rhodamine fluorescence (λex=584 and λem=612 nm). Data represent the mean±S.D. obtained from triplicates of four independent experiments, where mean rhodamine fluorescence values reflect the binding and uptake of liposomes and the mean calcein fluorescence reflects the intracellular dequenching of the dye (i.e. dye released from liposomes into intracellular compartments). Results are expressed as the percent fluorescence measured following incubation with DNJ-containing liposomes as compared to the calcein/PBS-only liposome control (=100% on the x axis).
The calculated ratio of calcein to rhodamine fluorescence is taken as a measure of the amount of aqueous marker released per cell-associated liposome, and represents the efficiency of intracellular delivery.

[2] = pH sensitivity of DCPP liposomes (calcein leakage); type: physicochemical; settings: 1 mM encapsulated, pH 5.0-7.4, vs calcein only liposomes
Procedure: DCPP liposomes encapsulating 1-mM DNJ, NB-DNJ, or NN-DNJ in 80-mM calcein buffer were compared with empty (calcein only) liposomes to determine the effects of the alkyl chain of NB-DNJ and NN-DNJ on the pH-sensitivity. 10 μl of calcein-loaded DCPP liposomes (final phospholipid concentration, 5 μM) was added to 2 ml of MES-buffered saline at various pH values ranging from 5.0-7.4, and left to incubate with shaking 15 min at 37° C. Following incubation, calcein fluorescence was measured before and after the addition of Triton to a final concentration of 0.1%. Fluorescence intensities obtained at acidic pH values were corrected for the slight effect of pH on calcein fluorescence. The percentage of calcein release at each pH was calculated using the formula: % leakage=((in−I0)/(I100−I0))×100, where I0 is the fluorescence at neutral pH, In is the corrected intensity at acidic pH before the addition of Triton, and I100 is the total dequenched calcein at neutral pH.

[3] = encapsulated into DCPP liposomes
[4] = tested on: Hepatitis C virus; settings: alone or in combination with ribavirin; cited from earlier work
[5] = 10 μM encapsulated in DCPP liposomes
[6] = 1 mM encapsulated in DCPP liposomes
[7] = encapsulated in DCPP-Rh liposomes

Compound	Efficiency (calcein/rhodamine, AU) [1, 5]	Efficiency (calcein/rhodamine, AU) [1, 6]	effect on calcein dequenching (intracellular release) [1, 7]	pH sensitivity / stability of DCPP liposomes [2]	cellular uptake of liposomes [1, 7]	change of ER delivery of the peptide [3]	patients in whom therapy is effective [4]
OC[C@H]1NC[C@H](O)[C@@H](O)[C@@H]1O [DNJ, deoxynojirimycin]	10.4 ± 1.8 AU	10.8 ± 2.0 AU	no effect	no difference in stability	–	–	–
CCCCCCCCCN1C[C@H](O)[C@@H](O)[C@H](O)[C@H]1CO [NN-DNJ, N-nonyl deoxynojirimycin]	4.4 ± 1.3 AU	3.2 ± 1.1 AU	no effect	significant decrease in pH sensitivity	increase in cellular uptake	–	–
CSCC[C@H](NC(=O)[C@@H](NC(=O)CNC(=O)[C@H](CC(=O)O)NC(=O)[C@H](CCSC)NC(=O)[C@@H](N)Cc1ccc(O)cc1)[C@@H](C)O)C(=O)N[C@@H](CO)C(=O)N[C@@H](CCC(N)=O)C(=O)N[C@H](C(=O)O)C(C)C [YMDGTMSQV]	–	–	–	–	–	reduces the ER delivery of the peptide by an order of magnitude	–
interferon	–	–	–	–	–	–	up to 80%
